Experimental data published in patent US12350269B2 (Alexion Pharmaceuticals, Inc., priority 2015, dated 2025).
Read-outs that look alike come from different tables or passages of the source.

Key:
primary CLL cells [1] = assay: Primary CLL cell viability assay (propidium iodide, 72 hours); type: cell-based, human
Method: (§1) Isolated CLL cells were cultured in RPMI-1640 with 15% fetal bovine serum (Gibco, Grand Island, NY, USA), penicillin (100 IU), and streptomycin (100 μg/mL), at a density of 1×10^7 cells/mL in the presence or absence of […] CpG, 100 ng/mL CD40L, 10 ng/mL IL-4. Anti-IgM stimulation was conducted with plate-bound anti-IgM (10 μg/mL). CLL cells were stimulated with 10 ng/mL IL-6 (R&D Systems, Minneapolis, MN), to detect the phosphorylation of JAK1/JAK2 (Cell Signaling Technology, Danvers, MA) and STAT3 (Cell Signaling Technology, Danvers, MA, USA).
Ten thousand events in a live cell gate were counted by a FACS LSR2 (BD Biosciences) and the data was normalized to the matched vehicle control for each specimen (100%). IC50 was then generated using the GraphPad Prism 6 program (San Diego, CA, USA).

[2] = system: ibrutinib-resistant CLL cells (BTK^C481S, BTKT^316A); assay: BrdU proliferation assay, CLL cells of ibrutinib-relapsed patients; type: cell-based, human; conditions: three ibrutinib-relapsed patients
[3] = system: rat collagen induced arthritis; assay: Rat collagen induced arthritis model; type: in vivo
Method: Collagen antibody titers were determined by ELISA (R&D Systems). Steady-state serum Cmax was determined using liquid chromatography-tandem mass spectrometry.
The average plasma concentrations (Cmax) for each dosing group is shown at the right of the graph. Asterisks denote statistical significant relative to vehicle by student T test (p<0.05).

AMPK = assay: Purified kinase assay (Millipore); type: biochemical; conditions: 300 nM ATP
SYK = assay: Healthy normal human whole blood assay: B-cell, BCR stimulation, CD69 readout; type: cell-based
JAK2 [4] = target: T1, JAK2 (Homo sapiens, UniProt O60674); assay: Purified kinase assay (Millipore); type: biochemical; conditions: 300 nM ATP
T1 construct: purchased Millipore
T1 sequence (O60674 whole entry): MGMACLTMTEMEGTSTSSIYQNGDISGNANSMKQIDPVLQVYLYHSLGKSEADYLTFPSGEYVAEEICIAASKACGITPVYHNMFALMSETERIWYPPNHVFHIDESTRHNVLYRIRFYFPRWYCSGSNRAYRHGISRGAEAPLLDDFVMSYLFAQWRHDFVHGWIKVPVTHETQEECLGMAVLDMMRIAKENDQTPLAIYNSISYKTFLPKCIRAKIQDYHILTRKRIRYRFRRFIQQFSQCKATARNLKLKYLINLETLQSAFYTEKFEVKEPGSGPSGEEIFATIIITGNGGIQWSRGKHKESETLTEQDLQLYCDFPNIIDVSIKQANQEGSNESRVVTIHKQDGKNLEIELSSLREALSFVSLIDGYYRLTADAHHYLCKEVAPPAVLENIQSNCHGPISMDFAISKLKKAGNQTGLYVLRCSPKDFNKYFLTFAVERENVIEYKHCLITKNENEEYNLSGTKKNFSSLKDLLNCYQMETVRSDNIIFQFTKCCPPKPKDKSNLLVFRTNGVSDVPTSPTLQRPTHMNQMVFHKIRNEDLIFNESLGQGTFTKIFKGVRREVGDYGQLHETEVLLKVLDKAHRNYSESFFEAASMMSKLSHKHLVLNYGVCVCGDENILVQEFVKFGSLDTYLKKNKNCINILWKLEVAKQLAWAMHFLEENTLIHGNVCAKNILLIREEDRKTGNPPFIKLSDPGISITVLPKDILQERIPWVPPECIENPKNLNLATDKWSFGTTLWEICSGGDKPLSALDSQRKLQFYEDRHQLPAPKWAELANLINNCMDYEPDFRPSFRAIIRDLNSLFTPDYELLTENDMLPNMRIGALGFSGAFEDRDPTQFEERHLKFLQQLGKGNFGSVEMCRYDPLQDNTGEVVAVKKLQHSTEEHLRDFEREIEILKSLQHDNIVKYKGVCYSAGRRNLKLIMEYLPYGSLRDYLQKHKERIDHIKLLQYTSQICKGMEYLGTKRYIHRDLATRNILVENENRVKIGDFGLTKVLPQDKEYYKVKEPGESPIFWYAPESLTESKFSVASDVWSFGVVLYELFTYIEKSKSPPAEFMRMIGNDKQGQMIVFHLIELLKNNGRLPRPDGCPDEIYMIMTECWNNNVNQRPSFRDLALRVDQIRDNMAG

[5] = Phase 1 study: pharmacokinetics following oral dosing; type: in vivo, human
Method: Study initiated at 15 mg QD (once daily) and dose-escalated in a 3+3 design with a 28 day safety window. Patients received a single dose on day 1 for 72 hour PK evaluation. Continuous dosing was then initiated on day 4.
A 3+3 dose escalation study with 28-day cycles was carried out; the doses studied ranged from 15 mg to 65 mg once daily and up to 45 mg twice daily. Patients received a single dose on day 1 for 72 hour PK evaluation. Continuous dosing was initiated on day 4. 43 patients with CLL/SLL or B cell NHL were dosed. Median age was 67 years (range 23-85) and median prior therapies (tx) was 3 (range 1-8).

[6] = system: BCR/SYK and cytokine (IL2, IL4, IL6) JAK/STAT signaling; assay: Healthy whole blood ex vivo spiking experiments (summary); type: cell-based, human
Method: (§2) Human Whole Blood Assays: Inhibition of SYK- and JAK-dependent and independent signaling was determined by stimulating human whole blood with various agonists against BCR and cytokine receptors. 100 μL aliquots of heparinized healthy human whole blood was stimulated as previously described (Coffey et al, J. of Pharm. and Experimental Therapeutics, 351:538-548, 2014), using an 8-point concentration curve to determine IC50's. Signaling and activation responses were determined by Fluorescence-activated cell sorting (“FACS”). For the clinical trial, whole blood samples were collected prior to and after dosing. Percent inhibition was calculated by normalizing to the pre-dose stimulation response.
Plasma concentrations above 2 μM have been safely achieved in cancer patients following once daily oral dosing, while maintaining steady-state Cmin of ˜1 μM.

[7] = system: IL-4 induced STAT6 phosphorylation; assay: Primary CLL cells: IL-4 induced signalling; type: cell-based, human
Method: as §1

JAK2 [8] = assay: Healthy normal human whole blood assay: Monocytes, GMCSF stimulation, pSTAT5 Y694 readout; type: cell-based; conditions: Monocyte
PKC = assay: Healthy normal human whole blood assay: B-cell, PMA stimulation, pERK Y204 readout; type: cell-based
primary CLL cells [9] = assay: Primary CLL apoptosis (propidium iodide/Annexin V, PARP cleavage); type: cell-based, human
Method: as §1

JAK1/TYK2 = assay: Healthy normal human whole blood assay: Monocytes, IL6 stimulation, pSTAT3 Y705 readout; type: cell-based; conditions: Monocyte
GM-CSF signaling = assay: Phase 1 study: whole blood PD, GM-CSF (JAK2) signaling; type: in vivo, human
Method: as §2
Pharmacokinetics (“PK”), pharmacodynamics (“PD”), and safety were monitored. Response was assessed by standard criteria. The level of inhibition of SYK and JAK was determined using a variety of whole blood assays measuring signaling via receptors for the B-cell antigen, IL2, IL4, IL6, and GM-CSF. Serum markers of tumor burden, including CCL3, CCL4, and other markers of inflammation (β2M and CRP), were also being measured.

JAK1/3 = assay: Healthy normal human whole blood assay: B-cell, IL4 stimulation, pSTAT6 Y641 readout; type: cell-based
[10] = system: ibrutinib-sensitive primary CLL cells; assay: BrdU proliferation assay, primary CLL cells of ibrutinib responders; type: cell-based, human; conditions: 250 nM, combined stimulation, day 8
[11] = system: anti-IgM induced signalling pathways; assay: Primary CLL cells: B cell receptor induced signalling (immunoblotting, flow cytometry); type: cell-based; conditions: primary human CLL cells
Method: as §1

[12] = 15 mg/twice daily oral, Table 4, n=28
[13] = 15 mg/twice daily, Table 5, n=43
[14] = 20 mg/twice daily oral, Table 4, n=28
[15] = 20 mg/twice daily, Table 5, n=43
[16] = 45 mg/day oral, PK outlier removed, Table 4, n=28
[17] = 45 mg/twice daily, Table 5, n=43
[18] = 100 mg/day (one patient), Table 5
[19] = 24 hours, in the presence of ZVAD

## CCS(=O)(=O)N1CCN(c2ccc(Nc3ncc(C(N)=O)c(NC4CC4)n3)cc2)CC1 [cerdulatinib, 4-(cyclopropylamino)-2-(4-(4-(ethylsulfonyl)piperazin-1-yl)phenylamino)pyrimidine-5-carboxamide]
Primary CLL cells [1]
  sensitivity of CLL cells with high-risk genetic abnormalities (del (11q), trisomy 12, del(17p)) versus del (13q) or none: more sensitive
Primary CLL cells [1]; P=0.0395
  sensitivity of CLL cells with unmutated IGHV (N=33) versus mutated IGHV (N=27): more sensitive
[2]
  BrdU^+ cell populations (proliferation): almost completely blocked
[3]
  Caverage corresponding to complete arrest of inflammation and auto-antibody generation: 0.3 to 0.4 µM
  average plasma concentration at which inflammation and joint destruction were arrested: 0.3 µM
AMPK
  IC50: 6 nM
SYK
  IC50: 100 nM
JAK2 [4]
  IC50: 6 nM
[5]; 15 mg/day oral, Table 4, n=28
  AUC_tau: 4.5 ± 0.8 µM·h
  SS Cave: 190 ± 30 nM
  SS Cmin: 120 ± 40 nM
  T1/2: 11.5 ± 3.9 h
[5]; 15 mg/day, Table 5, n=43
  AUC_tau: 4.5 ± 0.8 µM·h
  SS Cave: 190 ± 30 nM
  SS Cmin: 120 ± 40 nM
  T1/2: 11.5 ± 3.9 h
[5]; [12]
  SS Cave: 390 ± 110 nM
  SS Cmin: 290 ± 110 nM
[5]; [13]
  SS Cave: 390 ± 110 nM
  SS Cmin: 290 ± 110 nM
[5]; [14]
  SS Cave: 520 ± 90 nM
  SS Cmin: 380 ± 20 nM
[5]; [15]
  SS Cave: 520 ± 90 nM
  SS Cmin: 380 ± 20 nM
[5]; 30 mg/day oral, Table 4, n=28
  SS Cave: 310 ± 120 nM
  SS Cmin: 210 ± 120 nM
[5]; 30 mg/day, Table 5, n=43
  SS Cave: 310 ± 120 nM
  SS Cmin: 210 ± 120 nM
[5]; 40 mg to 100 mg oral once daily
  steady-state Cmin exposure at plateau: about 0.7 μM
[5]; 40 mg/day oral, Table 4, n=28
  SS Cave: 1140 ± 30 nM
  SS Cmin: 870 ± 70 nM
[5]; 40 mg/day, Table 5, n=43
  SS Cave: 1140 ± 30 nM
  SS Cmin: 870 ± 70 nM
[5]; 45 mg BID dose
  SS Cmin: about 1.5 μM
[5]; 45 mg BID, n=20
  Cave: 1400 ± 700 nM
  Cmin: 1270 ± 600 nM
[5]; [16]
  AUC_tau: 26.6 ± 13.9 µM·h
  SS Cave: 1110 ± 600 nM
  SS Cmin: 820 ± 600 nM
[5]; 45 mg/day, Table 5, n=43
  AUC_tau: 26.6 ± 13.9 µM·h
  SS Cave: 1110 ± 600 nM
  SS Cmin: 820 ± 600 nM
[5]; 45 mg/day, Table 5, n=43, read-out: SS Cmax
  Cmax: 1690 ± 600 nM
[5]; [17]
  SS Cave: 1500 ± 450 nM
  SS Cmin: 1480 ± 330 nM
[5]; 50 mg/day oral, Table 4, n=28
  SS Cave: 1310 ± 410 nM
  SS Cmin: 900 ± 140 nM
[5]; 50 mg/day, Table 5, n=43
  SS Cave: 990 ± 620 nM
  SS Cmin: 790 ± 370 nM
[5]; 50 mg/day, Table 5, n=43, read-out: SS Cmax
  Cmax: 1570 ± 940 nM
[5]; 65 mg dose
  steady state Cmin: approximately 1 μM
[5]; 65 mg/day, Table 5, n=43
  AUC_tau: 24.2 ± 0.7 µM·h
  SS Cave: 1010 ± 30 nM
  SS Cmin: 760 ± 40 nM
[5]; 65 mg/day, Table 5, n=43, read-out: SS Cmax
  Cmax: 1670 ± 90 nM
[5]; [18]
  SS Cave: 680 nM
  SS Cmin: 370 nM
[5]; 40-100 mg QD doses
  average steady state (SS) Cave: 1070 ± 440 nM
[5]; 40-100 mg QD doses, plateau
  average steady state (SS) Cmin: 770 ± 410 nM
[5]; human, plasma, oral, 40 mg QD, read-out: steady-state concentrations Cmin to Cmax
  Cmax: 1000 to 2000 nM
[5]; once daily oral dosing
  plasma concentrations safely achieved in cancer patients: above 2 μM
[5]; once daily oral dosing, cancer patients
  steady-state Cmin: ~1000 nM
[6]
  inhibition at the cellular level and/or in patients for AMPK, JAK2, TBK-1, RSK2, and RSK4: no evidence of inhibition
[6]; Homo sapiens, healthy whole blood, ex vivo spiking, read-out: IC50's, BCR/SYK and cytokine (IL2, IL4, IL6) JAK/STAT signaling
  IC50: 200 to 900 nM
[7]
  IL-4 induced STAT6 phosphorylation: abrogated
[7]; [19]
  IL-4 increased surface IgM expression: inhibited
JAK2 [8]
  IC50: > 4000 nM
PKC
  IC50: > 4000 nM
Primary CLL cells [9]
  apoptosis in U-CLL compared to M-CLL and in high versus low CD49d or ZAP70 expression: significantly greater apoptosis
  apoptosis with or without IL-4/CD40L support: induced apoptosis in the presence or absence of IL-4/CD40L support
  cleavage/activation of caspase 3 and 85 kDa PARP sub-fragment: induce cleavage/activation
Primary CLL cells [9]; 24 patients, 24, 48 and 72 hours
  apoptosis of CLL cells: induced apoptosis in a concentration and time dependent manner
Primary CLL cells [9]; [19]
  anti-apoptotic protein MCL1: decreased
  levels of pro-apoptotic protein NOXA: increased
JAK1/TYK2
  IC50: 350 nM
GM-CSF signaling; Patient 2
  % Inhibition GM-CSF: 0%
GM-CSF signaling; patients
  inhibition of JAK2 or PKC: no inhibition
JAK1/3
  IC50: 920 nM
[10]
  BrdU incorporation (proliferation): responded equally well
[11]
  concentration (achievable in patients) at which BCR and IL-4 mediated signalling was overcome: ~2.2 µM
